The results in this text go back to patent publication US5817639A, “Purine 4'-thioarabinonucleosides” (Yamasa Corporation, priority 1995, dated 1998).

Assay [1] concerns HSV-1 (VR-3 strain). Description: Anti-HSV-1 activity (plaque formation inhibition in human fetal lung fibroblasts). The assay is classed as cell-based, herpes simplex virus type 1. Conditions: Human alphaherpesvirus 1, Fibroblast, 50% inhibition of plaque formation, human fibroblasts derived from fetal lungs, 2-3 days at 37° C., read-out: ED50 HSV-1. Here is the method:
(§1) 1. Human fibroblasts derived from fetal lungs were subjected to subculturing in Eagle MEM supplemented with 10% semi-fetal calf serum (Mitsubishi Chemical Corporation) at a 1:2-4 split every 4 days. 2. A suspension of cells obtained by splitting their parent cells (1:2) was seeded in a 12-well multi-plate (2 ml/well), followed by culturing for 4-5 days at 37° C. in a CO2 -incubator. 3. The culture liquid was discarded, and Hanks' MEM (250 μl) containing 50-150 PFU of VR-3 strain of HSV-1 or MS strain of HSV-2 was inoculated, and the virus was allowed to be adsorbed for 30 minutes at 37° C. Thereafter, the viral liquid was discarded. 4. A 2.5% serum-added Eagle MEM containing a test compound and 0.8% methylcellulose was added and the resultant mixture was incubated in a CO2 -incubator for 2-3 days at 37° C. Generally, a test compound is diluted in serial 1/2 log10, and the maximal concentration is 10 μg/ml. 5. The culture liquid was discarded, and the cells were stained with a 0.5% crystal violet solution. Under a stereoscopic light microscope, the number of plaques in each well was counted. Using the equation below, the plaque formation inhibitory ratio (percent inhibition) was obtained. […]

The subject of assay [2] is HSV-2 (MS strain). Description: Anti-HSV-2 activity (plaque formation inhibition in human fetal lung fibroblasts). In kind it is cell-based, herpes simplex virus type 2. Conditions: Human alphaherpesvirus 2, Fibroblast, 50% inhibition of plaque formation, human fibroblasts derived from fetal lungs, 2-3 days at 37° C., read-out: ED50 HSV-2. As for the experimental part: as §1

Assay [3] deals with VZV (Oka strain). Kind of assay: Anti-Varicella Zoster Virus (VZV) activity (plaque formation inhibition in human fetal lung fibroblasts). The assay is classed as cell-based. Conditions: Human alphaherpesvirus 3, Fibroblast, read-out: ED50 VZV. As for the experimental part: (§2) 1. Human fibroblasts derived from fetal lungs were subjected to subculturing in Eagle MEM supplemented with 10% semi-fetal calf serum (Mitsubishi Chemical Corporation) at a 1:2-4 split every 4 days.
2. A suspension of cells obtained by splitting their parent cells (1:2) was seeded in a 12-well multi-plate (2 ml/well), followed by culturing for 4-5 days at 37° C. in a CO2 -incubator.
3. The culture liquid was discarded, and 750 μl of a 5% serum-added Eagle MEM containing 50-100 PFU of Oka strain of VZV was inoculated, and the virus was allowed to be adsorbed for 1 hour at 37° C.
4. Without removing the virus, 750 μl of Hanks' MEM containing the test compound was added, and the resultant mixture was incubated in a CO2 -incubator at 37° C. Generally, a test compound is diluted in serial 1/2 log10, and the maximal concentration is 10 μg/ml.
5. After culturing for 4-5 days, the culture liquid was discarded, and the cells were stained with a 0.5% crystal violet solution. Under a stereoscopic light microscope, the number of plaques in each well was counted. Using the equation used in (1) above, the plaque formation inhibitory ratio was obtained.
6. The plaque formation inhibitory ratio was plotted on a graph with respect to the concentration of the test compound (logarithmic representation).

Assay [4] deals with HCMV (AD-169 strain). Description: Anti-Human Cytomegalovirus activity (plaque formation inhibition in human fetal lung fibroblasts). The assay is classed as cell-based. Conditions: Human betaherpesvirus 5, AD169, Fibroblast, 50% inhibition of plaque formation, human fibroblasts derived from fetal lungs, 4 days plus further 4-5 days, read-out: ED50 HCMV. Here is the method: as §2
2. A suspension of cells obtained by splitting their parent cells (1:2) was seeded in a 12-well multi-plate (2 ml/well), followed by culturing for 4 days at 37° C. in a CO2 -incubator.
3. The culture liquid was discarded, and 750 μl of a 5% serum-added Eagle MEM containing 50-100 PFU of AD-169 strain of HCMV was inoculated, and the virus was allowed to be adsorbed for 1 hour at 37° C.
4. Without removing the virus, 750 μl of Hanks' MEM containing the test compound was added, and the resultant mixture was incubated in a CO2 -incubator at 37° C. for 4 days. Generally, a test compound is diluted in serial 1/2 log10, and the maximal concentration is 10 μg/ml.
5. The medium was changed to a fresh 2.5% serum-added Eagle MEM containing 0.8% methylcellulose and the test compound having the same concentration, followed by culturing further for 4-5 days.
6. The culture liquid was discarded, and the cells were stained with May-Gruenwald's-Giemsa (×10). Under a stereoscopic light microscope, the number of plaques in each well was counted. Using the equation used in (1) above, the plaque formation inhibitory ratio was obtained.
7. […]

≈ marks a conversion by molar mass, not a printed value.

`Nc1nc(N)c2ncn([C@@H]3S[C@H](CO)[C@@H](O)[C@@H]3O)c2n1` [Ia-β, 9-(4-thio-β-D-arabinofuranosyl)-2,6-diaminopurine]: the EC50 turned out to be 0.52 µg/mL (≈ 1.74 µM) in assay [1], 0.4 µg/mL (≈ 1.34 µM) in assay [2], 0.11 µg/mL (≈ 0.369 µM) in assay [3] and 0.022 µg/mL in assay [4].

Consider `Nc1nc2c(ncn2[C@@H]2S[C@H](CO)[C@@H](O)[C@@H]2O)c(=O)[nH]1` [Ib-β, 9-(4-thio-δ-D-arabinofuranosyl)guanine], for which the EC50 came out at 0.49 µg/mL (≈ 1.64 µM) in assay [1], 0.59 µg/mL (≈ 1.97 µM) in assay [2], 0.11 µg/mL (≈ 0.368 µM) in assay [3] and 0.011 µg/mL in assay [4].
